Where two headings read alike, the source gives them in different places.
Test system: cholecyst contraction induced by yolk
Assay: Inhibition of yolk-induced gallbladder (cholecyst) mass decrease in mice
Type: in vivo, male mice from the strain NMRI
Conditions: Mus musculus, po
Procedure: The effect of the bicycloheptane derivatives used according to the invention is verified on the following test. Known spasmolytics 1-[3',4'-di-(ethoxy)-benzyliden]-6,7-di-- [ethoxy] -1,2,3,4-terra-[hydro] -isoquinoline {drotaverine} and 1- [3',4'-di-(methoxy)-benzyl]-6,7-di-[methoxy] -isoquinoline {papaverine} are employed for comparison. (These spasmolytics are most often used in the therapeutical practice).
The tests were performed on male mice from the strain NMRI in groups consisting of 8 to 12 animals. At the beginning of the test, the animals were weighing 20 to 30 g.
The animals were starved for 24 hours before beginning the first treatment, however, they were allowed to consume water ad libitum. The compounds to be tested and the carrier (0.4% solution of methyl cellulose) were administered perorally in a volume of 10 ml/kg.
45 minutes after this treatment, an emulsion of 30% of yolk in 0.4% methyl cellulose solution was administered perorally. Each mouse consumed 0.5 ml of the emulsion. The animals of the control group consumed 0.5 ml of the carrier i.e. 0.4% methyl cellulose solution.
After 15 minutes, cervicalis dislocatio was employed, the gallbladders were removed and weighed, one by one. The effect of the compounds tested was given as the inhibition of the cholecyst mass decrease induced by yolk, in percentage. […] Table

[1] = dose causing 50% inhibition of the cholecyst mass decrease induced by yolk, p.o. 45 min before 30% yolk emulsion, gallbladders weighed 15 min later, linear regression, read-out: ID50 p.o.

Compound | ED50 [1] | ED50 (read-out: ID50 p.o. in mg/kg)
CN(C)CCO[C@]1(c2ccccc2)C[C@H]2CC[C@]1(C)C2(C)C.O=C(O)/C=C/C(=O)O [(1R,2S,4R)-(-)-2-[Phenyl]-2-[2'-(dimethylamino)-ethoxy]-1,7,7-tri-[methyl] -bicyclo[2.2.1]heptane (E)-2-butenedioate] | 7 mg/kg | –
CC1(C)[C@@H]2CC[C@@]1(C)[C@@](OCC[N+](C)(C)[O-])(c1ccccc1)C2 [(1R,2S,4R)-(-)-2-[Phenyl]-2-[2'-(dimethylamino)-ethoxy]-1,7,7-tri-[methyl]-bicyclo[2.2.1]heptane-N-oxide (E)-2-butenedioate] | > 100 mg/kg | –
CN(C)CCO[C@@]1(c2ccccc2)C[C@@H]2CC[C@@]1(C)C2(C)C.O=C(O)/C=C/C(=O)O [(1S,2R,4S)-(+)-2-[Phenyl] -2-[2'-(dimethylamino)-ethoxy]-1,7,7-tri-[methyl] -bicyclo[2.2.1]heptane (E) -2-butenedioate] | > 100 mg/kg | –
CCOc1ccc(/C=C2\NCCc3cc(OCC)c(OCC)cc32)cc1OCC [Drotaverine, 1-[3',4'-di-(Ethoxy)-benzyliden]-6,7-di-[ethaxy]-1,2,3,4-tetra-[hydro]-isoquinoline, reference compound] | > 100 mg/kg | –
COc1ccc(Cc2nccc3cc(OC)c(OC)cc23)cc1OC [Papaverine, 1-[3',4'-di-(Methoxy)-benzyl]-6,7-di-[methoxy]-isoquinoline, reference compound] | – | > 100 mg/kg

Reference: patent EP0694299B1, “The use of( a) bicycloheptane derivative(s)” (EGIS GYOGYSZERGYAR RT., priority 1994, dated 1996)
